The values that follow come from patent US11427563B2, “Aryl cyclopropyl-amino-isoquinolinyl amide compounds” (Aerie Pharmaceuticals, Inc., priority 2018, dated 2022).

Assay [1] has as its target ROCK2 enzyme (Homo sapiens (Human), UniProt O75116). The assay can be described thus: ROCK kinase inhibition assay (ROCK2). The note with it: for IC50: Table 1. The assay is classed as biochemical.
Assay [2] has as its target IKKβ (Homo sapiens (Human), UniProt O14920). Nature of the assay: IKKβ inhibition. Conditions: for IC50: Table 1. The assay is classed as biochemical.
The target of assay [3] is JAK3 enzyme (Homo sapiens (Human), UniProt P52333). The assay can be described thus: JAK kinase assay (JAK3). The assay is classed as biochemical. Conditions: for IC50: Table 1.
Sequence of JAK3 enzyme (P52333 whole entry, species assumed): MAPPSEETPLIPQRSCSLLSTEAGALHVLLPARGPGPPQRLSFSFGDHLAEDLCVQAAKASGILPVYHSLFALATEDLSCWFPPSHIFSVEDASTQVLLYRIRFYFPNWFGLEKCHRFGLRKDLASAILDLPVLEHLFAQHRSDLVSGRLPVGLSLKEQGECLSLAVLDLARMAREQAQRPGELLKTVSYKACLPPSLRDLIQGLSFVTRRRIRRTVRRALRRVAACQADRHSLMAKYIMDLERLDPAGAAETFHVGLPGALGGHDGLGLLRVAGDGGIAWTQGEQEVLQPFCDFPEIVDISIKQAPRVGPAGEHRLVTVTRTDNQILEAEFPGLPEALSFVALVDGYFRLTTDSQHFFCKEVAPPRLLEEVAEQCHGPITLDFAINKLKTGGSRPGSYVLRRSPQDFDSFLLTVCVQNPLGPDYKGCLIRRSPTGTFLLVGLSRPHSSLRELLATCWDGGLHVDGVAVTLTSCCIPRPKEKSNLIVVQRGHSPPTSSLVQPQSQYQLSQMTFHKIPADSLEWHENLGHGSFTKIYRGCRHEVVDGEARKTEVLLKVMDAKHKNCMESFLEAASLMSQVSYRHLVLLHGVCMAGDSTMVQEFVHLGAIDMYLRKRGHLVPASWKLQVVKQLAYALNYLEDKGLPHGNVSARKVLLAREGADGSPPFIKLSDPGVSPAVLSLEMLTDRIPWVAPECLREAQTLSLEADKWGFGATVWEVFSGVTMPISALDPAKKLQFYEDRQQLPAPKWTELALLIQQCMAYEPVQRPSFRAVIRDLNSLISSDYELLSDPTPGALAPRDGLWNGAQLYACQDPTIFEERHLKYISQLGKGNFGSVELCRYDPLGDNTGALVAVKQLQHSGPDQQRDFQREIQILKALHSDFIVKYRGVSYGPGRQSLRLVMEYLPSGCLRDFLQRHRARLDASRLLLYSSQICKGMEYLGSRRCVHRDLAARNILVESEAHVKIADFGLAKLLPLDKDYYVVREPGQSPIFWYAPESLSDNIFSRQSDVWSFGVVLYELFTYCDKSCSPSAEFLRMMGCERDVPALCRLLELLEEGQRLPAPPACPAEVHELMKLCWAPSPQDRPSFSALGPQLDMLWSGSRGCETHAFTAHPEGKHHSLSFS
The target in assay [4] is ROCK1 enzyme (Homo sapiens (Human), UniProt Q13464). The assay can be described thus: ROCK kinase inhibition assay (ROCK1). The note with it: Table 1. The assay is classed as biochemical.
Sequence of ROCK1 enzyme (Q13464 whole entry, species assumed): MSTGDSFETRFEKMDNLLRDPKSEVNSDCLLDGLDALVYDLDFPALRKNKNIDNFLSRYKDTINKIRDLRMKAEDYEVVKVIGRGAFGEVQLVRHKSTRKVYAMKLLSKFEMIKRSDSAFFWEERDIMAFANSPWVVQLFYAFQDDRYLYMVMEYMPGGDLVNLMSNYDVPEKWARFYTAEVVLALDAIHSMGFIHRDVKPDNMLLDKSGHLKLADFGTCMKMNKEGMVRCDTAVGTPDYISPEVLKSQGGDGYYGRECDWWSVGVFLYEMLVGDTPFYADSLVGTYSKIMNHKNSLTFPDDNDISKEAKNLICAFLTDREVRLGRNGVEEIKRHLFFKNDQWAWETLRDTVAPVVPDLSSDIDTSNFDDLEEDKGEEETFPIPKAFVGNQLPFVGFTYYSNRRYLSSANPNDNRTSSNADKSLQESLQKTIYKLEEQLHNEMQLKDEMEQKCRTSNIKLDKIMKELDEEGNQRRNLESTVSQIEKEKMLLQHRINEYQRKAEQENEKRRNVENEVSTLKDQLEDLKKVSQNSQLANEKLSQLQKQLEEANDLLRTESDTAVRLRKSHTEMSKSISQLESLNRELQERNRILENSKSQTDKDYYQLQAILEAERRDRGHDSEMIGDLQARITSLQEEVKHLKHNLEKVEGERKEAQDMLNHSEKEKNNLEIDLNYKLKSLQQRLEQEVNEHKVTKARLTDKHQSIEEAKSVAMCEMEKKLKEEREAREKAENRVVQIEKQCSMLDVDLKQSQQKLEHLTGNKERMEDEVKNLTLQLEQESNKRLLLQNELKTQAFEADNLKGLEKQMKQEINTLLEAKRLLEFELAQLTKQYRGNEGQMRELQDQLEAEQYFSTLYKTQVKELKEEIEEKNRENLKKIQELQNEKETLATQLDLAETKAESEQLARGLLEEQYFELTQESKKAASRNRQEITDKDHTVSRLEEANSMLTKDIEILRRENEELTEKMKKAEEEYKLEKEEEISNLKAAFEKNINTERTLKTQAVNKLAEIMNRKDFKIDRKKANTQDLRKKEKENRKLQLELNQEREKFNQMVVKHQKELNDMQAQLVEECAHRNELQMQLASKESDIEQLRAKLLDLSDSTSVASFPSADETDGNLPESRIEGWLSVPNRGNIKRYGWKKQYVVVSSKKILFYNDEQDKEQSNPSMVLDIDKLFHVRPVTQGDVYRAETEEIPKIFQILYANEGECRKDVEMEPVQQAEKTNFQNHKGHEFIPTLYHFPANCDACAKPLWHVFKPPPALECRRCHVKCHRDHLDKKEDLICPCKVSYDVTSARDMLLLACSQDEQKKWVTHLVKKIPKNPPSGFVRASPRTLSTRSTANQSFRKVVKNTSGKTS
Assay [5] concerns the target TYK2 (Homo sapiens (Human), UniProt P29597). The assay can be described thus: TYK2 inhibition. The assay is classed as biochemical. The note with it: Table 1.
Assay [6] has as its system Stat5. The assay can be described thus: Stat5 assay. The assay is classed as cell-based. The note with it: Table 1.
Assay [7] has as its system Porcine Trabecular Meshwork cells (PTM). The assay can be described thus: PTM-HTM assay (actin fiber length in PTM cells). The assay is classed as cell-based. Conditions: Sus scrofa; Table 2. As to the method:
Porcine Trabecular Meshwork cells (PTM) were isolated from freshly obtained enucleated porcine eyes. Immortalized Human Trabecular Meshwork cells (TM-1) were obtained through a kind gift from Donna Peters in the Department of Ophthalmology and Visual Sciences at the University of Wisconsin. Cells were plated onto fibronectin coated glass-bottom 96-well plates and allowed to attach overnight. Media was removed and replaced with test compound in media with 1% fetal bovine serum and incubated for various times. After incubation, cells were formaldehyde fixed, triton solubilized, and stained. PTM cells were stained with Alexa Fluor®488 phalloidin (F-actin) and Hoechst 33342 (nuclei). TM-1 cells were stained with anti-paxillin followed by Alexa Fluor®488 goat-anti-mouse IgG (focal adhesions) and Hoechst 33342 (nuclei). All staining reagents were obtained through Invitrogen. Images were collected on an INCell 2200 imager with a 20× objective. The actin fiber length and total area of focal adhesions were analyzed using custom algorithms developed in the INCell Developer Toolbox, v1.9.3. Data collected were converted to percent of control (untreated cells). Curves were fit to data in GraphPad Prizm using sigmoidal dose-response and constraining top and bottom to 100% and 0%, respectively.

Setting [8] is: Table 2, Ki from IC50 by Cheng-Prusoff.

pIC50, pKi: −log10 of the molar value. Where only a bound is given, the exact number is not on record here.

Sequence of TYK2 (P29597 whole entry, species assumed): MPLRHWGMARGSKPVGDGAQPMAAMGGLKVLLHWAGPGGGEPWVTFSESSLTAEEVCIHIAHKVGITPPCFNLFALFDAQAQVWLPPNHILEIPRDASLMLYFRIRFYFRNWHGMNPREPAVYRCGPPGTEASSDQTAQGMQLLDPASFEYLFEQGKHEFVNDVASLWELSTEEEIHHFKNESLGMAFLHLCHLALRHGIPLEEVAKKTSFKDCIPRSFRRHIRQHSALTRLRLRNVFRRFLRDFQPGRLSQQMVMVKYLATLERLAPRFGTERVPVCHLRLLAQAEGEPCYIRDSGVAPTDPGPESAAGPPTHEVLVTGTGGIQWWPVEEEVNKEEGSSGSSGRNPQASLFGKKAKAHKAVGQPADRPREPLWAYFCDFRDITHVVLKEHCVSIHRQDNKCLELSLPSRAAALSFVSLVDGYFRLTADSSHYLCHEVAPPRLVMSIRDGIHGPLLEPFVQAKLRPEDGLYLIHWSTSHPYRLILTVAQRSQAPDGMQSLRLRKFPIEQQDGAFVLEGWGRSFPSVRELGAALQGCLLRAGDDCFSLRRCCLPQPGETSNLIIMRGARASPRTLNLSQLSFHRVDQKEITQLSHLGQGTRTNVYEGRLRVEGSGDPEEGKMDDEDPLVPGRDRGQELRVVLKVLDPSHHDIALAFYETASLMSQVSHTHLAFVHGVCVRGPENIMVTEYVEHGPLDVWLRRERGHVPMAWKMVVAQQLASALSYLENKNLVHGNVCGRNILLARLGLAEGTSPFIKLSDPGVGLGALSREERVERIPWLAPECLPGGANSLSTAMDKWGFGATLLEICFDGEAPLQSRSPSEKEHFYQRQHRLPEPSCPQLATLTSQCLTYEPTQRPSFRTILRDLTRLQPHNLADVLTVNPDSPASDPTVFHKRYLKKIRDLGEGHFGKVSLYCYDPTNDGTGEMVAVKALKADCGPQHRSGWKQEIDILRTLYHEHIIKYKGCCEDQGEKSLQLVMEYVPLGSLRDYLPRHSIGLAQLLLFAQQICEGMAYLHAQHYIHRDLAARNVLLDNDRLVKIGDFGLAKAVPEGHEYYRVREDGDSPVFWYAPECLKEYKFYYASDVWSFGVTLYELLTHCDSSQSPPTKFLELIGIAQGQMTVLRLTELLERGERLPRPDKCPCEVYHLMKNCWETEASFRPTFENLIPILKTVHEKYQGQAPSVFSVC
Sequence of ROCK2 enzyme (O75116 whole entry, species assumed): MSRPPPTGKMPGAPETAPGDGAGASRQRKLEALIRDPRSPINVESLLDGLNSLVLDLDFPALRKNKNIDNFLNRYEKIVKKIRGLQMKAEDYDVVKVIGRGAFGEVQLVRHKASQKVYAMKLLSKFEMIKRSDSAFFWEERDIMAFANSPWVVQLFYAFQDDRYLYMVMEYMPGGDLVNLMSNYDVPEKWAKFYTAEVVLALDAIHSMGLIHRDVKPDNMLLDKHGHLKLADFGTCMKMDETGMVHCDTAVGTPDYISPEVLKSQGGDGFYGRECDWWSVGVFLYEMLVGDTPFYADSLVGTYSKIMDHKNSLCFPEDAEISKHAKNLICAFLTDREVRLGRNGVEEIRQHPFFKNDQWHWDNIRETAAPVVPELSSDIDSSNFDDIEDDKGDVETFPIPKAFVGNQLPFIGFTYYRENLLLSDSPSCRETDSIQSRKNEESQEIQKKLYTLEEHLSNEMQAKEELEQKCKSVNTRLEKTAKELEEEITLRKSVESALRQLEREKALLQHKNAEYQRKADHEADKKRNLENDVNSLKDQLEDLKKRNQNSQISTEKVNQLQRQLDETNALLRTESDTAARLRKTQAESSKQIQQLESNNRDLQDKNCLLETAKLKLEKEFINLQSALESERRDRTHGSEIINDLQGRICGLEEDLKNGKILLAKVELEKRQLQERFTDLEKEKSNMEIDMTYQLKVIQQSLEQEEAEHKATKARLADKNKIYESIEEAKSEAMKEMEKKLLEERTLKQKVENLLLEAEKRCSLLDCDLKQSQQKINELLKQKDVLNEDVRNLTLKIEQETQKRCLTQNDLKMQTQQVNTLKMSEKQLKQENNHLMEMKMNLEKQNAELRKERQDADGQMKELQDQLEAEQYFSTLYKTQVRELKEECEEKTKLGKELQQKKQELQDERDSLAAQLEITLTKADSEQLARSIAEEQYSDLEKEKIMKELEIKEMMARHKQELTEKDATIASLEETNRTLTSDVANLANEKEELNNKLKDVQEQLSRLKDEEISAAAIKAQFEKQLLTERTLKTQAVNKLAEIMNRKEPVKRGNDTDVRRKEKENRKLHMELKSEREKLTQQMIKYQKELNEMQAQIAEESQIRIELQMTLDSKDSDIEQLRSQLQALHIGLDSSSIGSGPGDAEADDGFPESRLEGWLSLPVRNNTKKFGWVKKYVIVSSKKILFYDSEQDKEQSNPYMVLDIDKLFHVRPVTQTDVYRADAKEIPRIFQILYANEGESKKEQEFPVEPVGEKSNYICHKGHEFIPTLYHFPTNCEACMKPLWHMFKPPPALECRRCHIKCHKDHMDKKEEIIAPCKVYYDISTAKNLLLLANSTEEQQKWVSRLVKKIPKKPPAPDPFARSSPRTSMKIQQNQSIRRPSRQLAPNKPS

One may read the IC50 as the concentration at which inhibition is half-maximal. The low end stands for higher potency, the high end for lower potency. On to `O=C(Nc1ccc2cncc(Cl)c2c1)[C@@H]1CC1c1ccc(S(=O)(=O)Nc2ccc(F)cn2)cc1` (mixture of isomers) [Compound 16a], for which the IC50 is 56 nM in assay [1]; 88 nM in assay [2]; 4.8 nM in assay [3]; 156 nM in assay [4]; 7 nM in assay [5].

For the molecule `O=C(Nc1ccc2cncc(Cl)c2c1)[C@@H]1CC1c1ccc(S(=O)(=O)Nc2ccc(F)cn2)cc1` (mixture of isomers) [Compound 16b], the IC50 in assay [1] amounted to 25 nM; in assay [2], 70 nM; in assay [3], 2.9 nM; in assay [4], 74 nM; in assay [5], 12 nM.

Consider `Cc1cncc2ccc(NC(=O)[C@@H]3C[C@H]3c3ccc(S(=O)(=O)Nc4ncc(C5CCNCC5)cn4)cc3)cc12` [Compound 1], for which the 50% inhibitory concentration (IC50) worked out at 4.9 nM in assay [1], 1130 nM in assay [2], 148 nM in assay [3] and 16 nM in assay [4].

For `O=C(Nc1ccc2cncc(Cl)c2c1)[C@@H]1C[C@H]1c1ccc(S(=O)(=O)Nc2ncccn2)cc1` [Compound 6], the IC50 stood at 68 nM in assay [1], 4.1 nM in assay [2] and 128 nM in assay [4].

Take `CCc1cncc2ccc(NC(=O)[C@@H]3C[C@H]3c3ccc(S(=O)(=O)Nc4ncccn4)cc3)cc12` [Compound 7]: the IC50 in assay [1] is 880 nM; in assay [2], 3.6 nM; in assay [3], 5.8 nM; in assay [4], 1090 nM.

As to `Cc1cncc2ccc(NC(=O)[C@@H]3CC3c3ccc(S(=O)(=O)Nc4ncc(F)cn4)cc3)cc12` (stereo partly shown) [Compound 8], the IC50 in assay [1] was 93 nM; in assay [2], 7.3 nM; in assay [3], 3.9 nM; in assay [4], 121 nM.

As for `O=C(Nc1ccc2cncc(C(F)(F)F)c2c1)[C@@H]1CC1c1ccc(S(=O)(=O)Nc2ncccn2)cc1` (stereo partly shown) [Compound 9], the half-maximal inhibitory concentration (IC50) is 1160 nM in assay [1], 14 nM in assay [2], 8.2 nM in assay [3] and 1570 nM in assay [4].

Take `Cc1cncc2ccc(NC(=O)[C@@H]3CC3c3ccc(S(=O)(=O)Nc4cnccn4)cc3)cc12` (stereo partly shown) [Compound 10]: the IC50 was 74 nM in assay [1]; 105 nM in assay [2]; greater than 1000 nM in assay [6]; 14 nM in assay [3]; 220 nM in assay [4].

`Cc1cncc2ccc(NC(=O)[C@@H]3C[C@H]3c3ccc(S(=O)(=O)Nc4cnccn4)cc3)cc12` [Compound 10] returned an IC50 in assay [5] of 34 nM.

For the molecule `Cc1cncc2ccc(NC(=O)[C@@H]3C[C@H]3c3ccc(S(=O)(=O)Nc4cncc(C5=CCNCC5)n4)cc3)cc12` [Compound 11], the IC50 turned out to be 15 nM in assay [1], 765 nM in assay [2], 135 nM in assay [3] and 153 nM in assay [4].

Regarding `Cc1cncc2ccc(NC(=O)[C@@H]3C[C@H]3c3ccc(S(=O)(=O)NC4CCNC4)cc3)cc12` (stereo partly shown) [Compound 12], the concentration for half-maximal inhibition (IC50) in assay [1] was determined as 21 nM; in assay [2] it was 759 nM; in assay [3], 175 nM; in assay [4], 21 nM.

On to `Cc1cncc2ccc(NC(=O)[C@@H]3C[C@H]3c3ccc(S(=O)(=O)NC4CCCNC4)cc3)cc12` (stereo partly shown) [Compound 13], for which the IC50 in assay [1] was found to be 15 nM; in assay [2] it was 825 nM; in assay [3], 179 nM; in assay [4] it was 18 nM.

Turning to `O=C(Nc1ccc2cncc(C(F)(F)F)c2c1)[C@@H]1C[C@H]1c1ccc(S(=O)(=O)Nc2ccccn2)cc1` [Compound 14], the IC50 in assay [1] turned out to be 108 nM; in assay [2], 16 nM; in assay [3], 9 nM; in assay [4], 122 nM.

As to `O=C(Nc1ccc2cncc(Cl)c2c1)[C@@H]1C[C@H]1c1ccc(S(=O)(=O)Nc2ccc(F)cn2)cc1` [Compound 15], the IC50 in assay [1] came to 56 nM; in assay [2], 88 nM; in assay [3], 4.8 nM; in assay [4], 156 nM.

For `CCc1cncc2ccc(NC(=O)[C@@H]3CC3c3ccc(S(=O)(=O)Nc4ccccn4)cc3)cc12` (stereo partly shown) [Compound 17], the IC50 in assay [1] is 45 nM; in assay [3], 4.2 nM; in assay [4], 44 nM.

As to `O=C(Nc1ccc2cnccc2c1)[C@@H]1CC1c1ccc(S(=O)(=O)Nc2ccccn2)c(F)c1` (stereo partly shown) [Compound 18], the IC50 in assay [1] turned out to be 4 nM; in assay [2] it was 17.5 nM; in assay [3] it was 19.5 nM; in assay [4] it was 6.4 nM.

In the case of `O=C(Nc1ccc2cnccc2c1)[C@@H]1CC1c1cc(F)ccc1S(=O)(=O)Nc1ccccn1` (stereo partly shown) [Compound 19], the IC50 in assay [3] is 6750 nM; in assay [4] it was 7400 nM.

Consider `N#Cc1cncc2ccc(NC(=O)[C@@H]3CC3c3ccc(S(=O)(=O)Nc4ccccn4)cc3)cc12` (stereo partly shown) [Compound 20], for which the IC50 is 20 nM in assay [1], 6.9 nM in assay [2], 2.4 nM in assay [3] and 30 nM in assay [4].

As for `Cc1cncc2ccc(NC(=O)[C@@H]3CC3c3ccc(S(=O)(=O)Nc4cccnc4)cc3)cc12` (stereo partly shown) [Compound 27], in assay [2], half-maximal inhibition (IC50) was put at 159 nM.

For the molecule `Cc1cncc2ccc(NC(=O)[C@@H]3C[C@H]3c3ccc(S(=O)(=O)Nc4cccnc4)cc3)cc12` [Compound 27], the half-maximal inhibitory concentration (IC50) was 44 nM in assay [1], 19 nM in assay [3] and 98 nM in assay [5].

As to `O=C(Nc1ccc2cncc(Cl)c2c1)[C@@H]1CC1c1ccc(S(=O)(=O)Nc2cccnc2)cc1` (stereo partly shown) [Compound 28], the IC50 in assay [1] was found to be 67 nM; in assay [2] it was 381 nM; in assay [6], 57 nM; in assay [3], 18 nM; in assay [4] it was 160 nM; in assay [5] it was 210 nM.

On to `O=C(Nc1ccc2cnccc2c1F)[C@@H]1C[C@H]1c1ccc(S(=O)(=O)Nc2cccnc2)cc1` [Compound 29], for which the IC50 is 13.8 nM in assay [1], greater than 5000 nM in assay [2], 350 nM in assay [3] and 43 nM in assay [4].

Regarding `Cc1cncc2ccc(NC(=O)[C@@H]3C[C@H]3c3ccc(S(=O)(=O)Nc4nccs4)cc3)cc12` [Compound 32], the IC50 amounted to 12.3 nM in assay [1], 5 nM in assay [2], 3.4 nM in assay [3] and 20 nM in assay [4].

As a reminder, the pKi is the negative decadic logarithm of the Ki, by convention in mol/L. In general, pIC50 refers to −log10 of the IC50, conventionally taken in molar units. In the case of `CN(C)Cc1ccc(NC(=O)c2cccc([C@@H]3C[C@H]3C(=O)Nc3ccc4cncc(Cl)c4c3)c2)nc1` [Compound 36], the negative logarithm of the Ki (pKi) in assay [1] (setting [8]) was 9.00; in assay [2] (Table 2), 5.92; in assay [3] (setting [8]), 6.68. The same molecule had a pIC50 in assay [7] of 7.92.

Consider `O=C(Nc1cccnn1)c1ccc(C2C[C@H]2C(=O)Nc2ccc3cnccc3c2)cc1` (stereo partly shown) [Compound 175], for which the pIC50 in assay [7] is 6.19.
